Measured values published in ChEMBL document CHEMBL1250550, “Design, synthesis, biological evaluation, and modeling of a non-carbohydrate antagonist of the myelin-associated glycoprotein” (Bioorg Med Chem, 2010).

Assays:
[1] = target: T1, Myelin-associated glycoprotein (Mus musculus) (UniProt P20917); experiment: Antagonist activity at mouse MAGd1-3Fc domain expressed in CHO-Lec1 cells by fluorescent hapten binding assay relative to (2R,4R,5S,6R)-5-acetamido-6-((1R,2R)-3-benzamido-1,2-dihydroxypropyl)-2-(benzyloxy)-4-hydroxytetrahydro-2H-pyran-2-carboxylate; assay type: cell-based
T1 sequence (whole entry): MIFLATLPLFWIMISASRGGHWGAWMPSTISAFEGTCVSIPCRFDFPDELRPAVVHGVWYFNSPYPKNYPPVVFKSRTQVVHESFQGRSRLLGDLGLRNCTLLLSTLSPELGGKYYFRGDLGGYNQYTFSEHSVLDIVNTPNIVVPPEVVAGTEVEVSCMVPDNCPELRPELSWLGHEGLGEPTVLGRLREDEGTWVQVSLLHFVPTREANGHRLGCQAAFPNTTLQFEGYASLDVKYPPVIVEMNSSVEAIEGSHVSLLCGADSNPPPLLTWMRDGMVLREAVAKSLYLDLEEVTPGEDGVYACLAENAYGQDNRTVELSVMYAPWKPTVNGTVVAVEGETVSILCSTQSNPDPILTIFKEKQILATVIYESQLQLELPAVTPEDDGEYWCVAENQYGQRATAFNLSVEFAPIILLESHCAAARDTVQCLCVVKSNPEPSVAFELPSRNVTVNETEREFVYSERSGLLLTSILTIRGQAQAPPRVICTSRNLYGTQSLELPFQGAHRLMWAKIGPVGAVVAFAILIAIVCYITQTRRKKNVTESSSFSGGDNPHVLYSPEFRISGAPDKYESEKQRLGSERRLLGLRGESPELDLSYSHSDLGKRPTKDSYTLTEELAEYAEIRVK

[2] = target: T2, Myelin-associated glycoprotein (Mus musculus, UniProt P20917); experiment: Binding affinity to mouse MAGd1-3Fc domain expressed in CHO-Lec1 cells by surface plasmon resonance
T2 sequence (P20917 whole entry): T1 sequence (whole entry)

| Structure (SMILES) | Ratio IC50 [1] | Kd [2] [µM] |
| --- | --- | --- |
| O=C(CF)N[C@H]1[C@H]([C@H](O)[C@H](O)CNC(=O)c2ccc(Cl)cc2)O[C@@](OCc2cccc(F)c2F)(C(=O)O)C[C@@H]1O | 0.02 | 0.5 |
| CC(=O)N[C@H]1[C@H]([C@H](O)[C@H](O)CNC(=O)c2ccccc2)O[C@@](OCc2ccccc2)(C(=O)O)C[C@@H]1O |  | 26 |
| CC(=O)N[C@H]1C[C@](OCc2ccccc2)(C(=O)O)C[C@@H](OCCNC(=O)c2ccc(Cl)cc2)[C@@H]1NC(=O)CF | 4300 | > 800 |
